The OligoGym collection
“And” between values parts separate entries of the source, which are not always exact repeats. Equal entries are not always repeated. After the bases stand the sugars from the 5' end (letter, count) and the backbone: PS all phosphorothioate, else s phosphorothioate and o phosphodiester by linkage. Methylation of C is not given here. e = 2'-O-(2-methoxyethyl) (MOE); d = 2'-deoxy (DNA)

Molecular target: DGAT2
Conditions: ASO

AGCCTCGGTGTCCTCTC (sugars e3 d10 e4, PS)
target mRNA inhibition (HepG2, 2.5 µM): 8%
target mRNA inhibition (HepG2, 10 µM): 90%

GAGGAGTTCTCGAATATCCC (sugars e5 d10 e5, PS)
target mRNA inhibition (HepG2, 2.5 µM): 43%
target mRNA inhibition (HepG2, 10 µM): 80%

TCACTTGCTTGAGGTCAGGG (sugars e5 d10 e5, PS)
target mRNA inhibition (HepG2, 2.5 µM): 71% and 79%
target mRNA inhibition (HepG2, 10 µM): 80% and 89%

AAACCCTCGACTGAGTGTGA (sugars e5 d10 e5, PS)
target mRNA inhibition (HepG2, 0.12 µM): 37%

AGGACCCACTGGAGCAC (sugars e3 d10 e4, PS)
target mRNA inhibition (HepG2, 2.5 µM): 42%
target mRNA inhibition (HepG2, 10 µM): 93%

AACTCTGCCATTTAATGAGC (sugars e5 d10 e5, PS)
target mRNA inhibition (HepG2, 2.5 µM): 17%
target mRNA inhibition (HepG2, 10 µM): 53%

CAGGCCCCACTGCTTAGAGG (sugars e5 d10 e5, PS)
target mRNA inhibition (HepG2, 0.12 µM): 48%

TTGCCACTCCCATTCTTTGA (sugars e2 d13 e5, PS)
target mRNA inhibition (HepG2, 0.12 µM): 57%

GTGTAGCCAGGTAAGGCCGT (sugars e5 d10 e5, PS)
target mRNA inhibition (HepG2, 0.12 µM): 50%

ACATATCCCCAACTGAAACA (sugars e5 d10 e5, PS)
target mRNA inhibition (HepG2, 0.12 µM): 21%

ATTGCCACTCCCATTCTTTG (sugars e5 d10 e5, PS)
target mRNA inhibition (HepG2, 0.12 µM): 35%

GTTGTGTGTCTTCACCAGCT (sugars e5 d10 e5, PS)
target mRNA inhibition (HepG2, 0.12 µM): 54% and 68%

TTGTGTGTCTTCACCAGCTG (sugars e3 d14 e3, PS)
target mRNA inhibition (HepG2, 0.12 µM): 60%

GCTGATTACAAGCTGATTCT (sugars e5 d10 e5, PS)
target mRNA inhibition (HepG2, 2.5 µM): 59%
target mRNA inhibition (HepG2, 10 µM): 76%

TTTCCCATGGGAGAAGATAA (sugars e5 d10 e5, PS)
target mRNA inhibition (HepG2, 0.12 µM): 55%

GGGCTAATACCTACCTCACC (sugars e5 d10 e5, PS)
target mRNA inhibition (HepG2, 2.5 µM): 53%
target mRNA inhibition (HepG2, 10 µM): 74%

AGGCTGAGTTCTGCTCCTGG (sugars e5 d10 e5, PS)
target mRNA inhibition (HepG2, 2.5 µM): 72%
target mRNA inhibition (HepG2, 10 µM): 78%

CCGCGCAGGACCCCGGAGTA (sugars e3 d14 e3, PS)
target mRNA inhibition (HepG2, 0.12 µM): 71%

TGTGTTCCAGTCAAACACCA (sugars e5 d10 e5, PS)
target mRNA inhibition (HepG2, 0.12 µM): 23%

GGTCTGGGAACAGCAGC (sugars e3 d10 e4, PS)
target mRNA inhibition (HepG2, 2.5 µM): 72% and 76%
target mRNA inhibition (HepG2, 10 µM): 79% and 82%

GCCCAGTTTCGGACCCACTG (sugars e3 d14 e3, PS)
target mRNA inhibition (HepG2, 0.12 µM): 81%

GCGCAGGACCCCGGAGTAGG (sugars e2 d13 e5, PS)
target mRNA inhibition (HepG2, 0.12 µM): 72%

CTGGAGGCCAGTCCAGGCTC (sugars e5 d10 e5, PS)
target mRNA inhibition (HepG2, 0.12 µM): 23%

CGCAGGACCCCGGAGTAGGC (sugars e3 d14 e3, PS)
target mRNA inhibition (HepG2, 0.12 µM): 65%

GTGACCTTGGGATAGTCCCT (sugars e5 d10 e5, PS)
target mRNA inhibition (HepG2, 2.5 µM): 76% and 69%
target mRNA inhibition (HepG2, 10 µM): 92% and 89%

AGCTTGGTGAATAGCTATGT (sugars e5 d10 e5, PS)
target mRNA inhibition (HepG2, 2.5 µM): 75% and 68%
target mRNA inhibition (HepG2, 10 µM): 93% and 92%

TTGTGTGTCTTCACCAGCTG (sugars e5 d10 e5, PS)
target mRNA inhibition (HepG2, 0.12 µM): 63% and 73%

TCTCATCAAGAGATAACAGA (sugars e5 d10 e5, PS)
target mRNA inhibition (HepG2, 0.12 µM): 6%

ATAGGCCTGGATGCCCAAGT (sugars e5 d10 e5, PS)
target mRNA inhibition (HepG2, 2.5 µM): 49%
target mRNA inhibition (HepG2, 10 µM): 88%

GCTTCTTGGGCATCTGCTAG (sugars e5 d10 e5, PS)
target mRNA inhibition (HepG2, 2.5 µM): 74%
target mRNA inhibition (HepG2, 10 µM): 82%

CCTACAGCAGAGGGAAGATG (sugars e5 d10 e5, PS)
target mRNA inhibition (HepG2, 0.12 µM): 13%

GCGCAGGACCCCGGAGTAGG (sugars e5 d10 e5, PS)
target mRNA inhibition (HepG2, 0.12 µM): 79%

ACCTCACCTCCATACTGGCA (sugars e5 d10 e5, PS)
target mRNA inhibition (HepG2, 2.5 µM): 65%
target mRNA inhibition (HepG2, 10 µM): 86%

GCAGGTTGTGTGTCTTCACC (sugars e5 d10 e5, PS)
target mRNA inhibition (HepG2, 0.12 µM): 65% and 73%

GGGCACCAGCCCCCAGGTGT (sugars e5 d10 e5, PS)
target mRNA inhibition (HepG2, 0.12 µM): 34%

TTGCGGTTCCGCAGGGTGAC (sugars e5 d10 e5, PS)
target mRNA inhibition (HepG2, 0.12 µM): 70%

CCTGGACAAGTCCTGCCCAT (sugars e5 d10 e5, PS)
target mRNA inhibition (HepG2, 0.12 µM): 73%
